Experiments:
[1] = test system: normal NK cells expanded with K562-aAPC; assay: drug sensitivity score (DSS) (DSS units); higher = more sensitive; extreme values may be limits of the assay; settings: 72 h; IL-2 2.5 ng/mL
Procedure: (§1)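 Drug sensitivity and resistance testing on K562-aAPC-expanded normal NK cells: 5 concentrations (10-fold steps over a 10,000-fold range), 72 h at 37 °C, viability by CellTiter-Glo normalised to DMSO and benzethonium chloride controls; DSS from the fitted curve.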

[2] = test system: normal NK cells expanded with K562-aAPC; assay: percent inhibition of viability; higher = more inhibition; settings: 72 h, IL-2 2.5 ng/mL
Procedure: as §1

NK-YS (IL-2 2.5 ng/mL) [3] = assay: drug sensitivity score (DSS) (DSS units); higher = more sensitive; extreme values may be limits of the assay; settings: 72 h
[4] = test system: normal primary NK cells, pool 2 (3 donors) (IL-2 2.5 ng/mL); assay: as above; settings: 72 h
[5] = test system: normal primary NK cells, pool 1 (3 donors) (IL-2 2.5 ng/mL); assay: as above; settings: 72 h
SNK-6 (IL-2 2.5 ng/mL) [6] = assay: as above; settings: 72 h
KHYG-1 (IL-2 2.5 ng/mL) [7] = assay: as above; settings: 72 h
DERL-7 (IL-2 2.5 ng/mL) [8] = assay: as above; settings: 72 h
[9] = test system: normal primary NK cells, pool 3 (3 donors) (IL-2 2.5 ng/mL); assay: as above; settings: 72 h
NKL (IL-2 2.5 ng/mL) [10] = assay: as above; settings: 72 h
[11] = test system: normal primary NK cells, pool 1 (3 donors), resting (IL-2 0 ng/mL); assay: as above; settings: 72 h
KAI3 (IL-2 2.5 ng/mL) [12] = assay: as above; settings: 72 h
YT (IL-2 2.5 ng/mL) [13] = assay: as above; settings: 72 h
NK-92 (IL-2 2.5 ng/mL) [14] = assay: as above; settings: 72 h
IMC-1 (IL-2 20 ng/mL) [15] = assay: as above; settings: 72 h
NK-YS (IL-2 2.5 ng/mL) [16] = assay: percent inhibition of viability; higher = more inhibition; settings: 72 h
[17] = test system: normal primary NK cells, pool 2 (3 donors) (IL-2 2.5 ng/mL); assay: as above; settings: 72 h
[18] = test system: normal primary NK cells, pool 1 (3 donors) (IL-2 2.5 ng/mL); assay: as above; settings: 72 h
SNK-6 (IL-2 2.5 ng/mL) [19] = assay: as above; settings: 72 h
KHYG-1 (IL-2 2.5 ng/mL) [20] = assay: as above; settings: 72 h
DERL-7 (IL-2 2.5 ng/mL) [21] = assay: as above; settings: 72 h
[22] = test system: normal primary NK cells, pool 3 (3 donors) (IL-2 2.5 ng/mL); assay: as above; settings: 72 h
NKL (IL-2 2.5 ng/mL) [23] = assay: as above; settings: 72 h
[24] = test system: normal primary NK cells, pool 1 (3 donors), resting (IL-2 0 ng/mL); assay: as above; settings: 72 h
KAI3 (IL-2 2.5 ng/mL) [25] = assay: as above; settings: 72 h
YT (IL-2 2.5 ng/mL) [26] = assay: as above; settings: 72 h
NK-92 (IL-2 2.5 ng/mL) [27] = assay: as above; settings: 72 h
IMC-1 (IL-2 20 ng/mL) [28] = assay: as above; settings: 72 h

COc1cc([C@@H]2c3cc4c(cc3[C@@H](O[C@@H]3O[C@@H]5CO[C@@H](c6cccs6)O[C@H]5[C@H](O)[C@H]3O)[C@H]3COC(=O)[C@H]23)OCO4)cc(OC)c1O [Teniposide] (max concentration tested 10000 nM)
Settings | drug sensitivity score
DERL-7 (IL-2 2.5 ng/mL) [8] | 33.5
IMC-1 (IL-2 20 ng/mL) [15] | 32.6
KAI3 (IL-2 2.5 ng/mL) [12] | 29.9
KHYG-1 (IL-2 2.5 ng/mL) [7] | 30.9
NK-92 (IL-2 2.5 ng/mL) [14] | 25
NK-YS (IL-2 2.5 ng/mL) [3] | 29.3
NKL (IL-2 2.5 ng/mL) [10] | 36.2
SNK-6 (IL-2 2.5 ng/mL) [6] | 28.5
YT (IL-2 2.5 ng/mL) [13] | 22.1
[1] | 18.8
[4] | 11
[5] | 14
[9] | 10.1
[11] | 20.6

percent inhibition of viability [%]
Settings | 1 nM | 10 nM | 100 nM | 1000 nM | 10000 nM
DERL-7 (IL-2 2.5 ng/mL) [21] | 5.54 | 34.5 | 94.9 | 80.3 | 99.3
IMC-1 (IL-2 20 ng/mL) [28] | -1.21 | 18.8 | 95.9 | 99.6 | 99
KAI3 (IL-2 2.5 ng/mL) [25] | -5.63 | 32.8 | 80.1 | 75.3 | 92.2
KHYG-1 (IL-2 2.5 ng/mL) [20] | 1.47 | 13.1 | 91.5 | 102 | 94.4
NK-92 (IL-2 2.5 ng/mL) [27] | -21.1 | 0.94 | 59.8 | 99.7 | 90.3
NK-YS (IL-2 2.5 ng/mL) [16] | 4.54 | 29.4 | 82.5 | 79.9 | 75.7
NKL (IL-2 2.5 ng/mL) [23] | 0.79 | 49.3 | 98.3 | 98.7 | 89.8
SNK-6 (IL-2 2.5 ng/mL) [19] | 5.23 | 16.8 | 78.2 | 95.8 | 94.7
YT (IL-2 2.5 ng/mL) [26] | 0.75 | -4.25 | 36.1 | 95.3 | 91.5
[2] | -1.49 | 7.42 | 51.3 | 59.8 | 99.4
[17] | -11.9 | -5.76 | 2.6 | 48.4 | 93.9
[18] | 2.23 | -5.23 | 11.2 | 66.3 | 96.6
[22] | -13.8 | -4.37 | 3.23 | 36.7 | 97
[24] | -23.6 | -9.41 | 27.9 | 90.8 | 91.2

O=C1NC(=O)/C(=C/c2ccc3nccc(-c4ccncc4)c3c2)S1 (max concentration tested 10000 nM)
Settings | drug sensitivity score
DERL-7 (IL-2 2.5 ng/mL) [8] | 12.7
IMC-1 (IL-2 20 ng/mL) [15] | 1.19
KAI3 (IL-2 2.5 ng/mL) [12] | 7.69
KHYG-1 (IL-2 2.5 ng/mL) [7] | 10.3
NK-92 (IL-2 2.5 ng/mL) [14] | 6.85
NK-YS (IL-2 2.5 ng/mL) [3] | 9.16
NKL (IL-2 2.5 ng/mL) [10] | 10.6
SNK-6 (IL-2 2.5 ng/mL) [6] | 7.19
YT (IL-2 2.5 ng/mL) [13] | 12.1
[1] | 7.25
[4] | 8.23
[5] | 6.93
[9] | 6.25
[11] | 14.1

percent inhibition of viability [%]
Settings | 1 nM | 10 nM | 100 nM | 1000 nM | 10000 nM
DERL-7 (IL-2 2.5 ng/mL) [21] | -4.4 | 4.35 | 9.03 | 60.2 | 88.2
IMC-1 (IL-2 20 ng/mL) [28] | -1.41 | -1.05 | 0.35 | -13.3 | 36.1
KAI3 (IL-2 2.5 ng/mL) [25] | 4.6 | -4.46 | 10.8 | 33.3 | 66
KHYG-1 (IL-2 2.5 ng/mL) [20] | -3.03 | -2.9 | 7.97 | 47.8 | 78.5
NK-92 (IL-2 2.5 ng/mL) [27] | -4.72 | -6.37 | -0.26 | 24.6 | 63.5
NK-YS (IL-2 2.5 ng/mL) [16] | -5.37 | -5.14 | 5.36 | 42.1 | 74.2
NKL (IL-2 2.5 ng/mL) [23] | -16.6 | -12.9 | 3.48 | 52.1 | 76.4
SNK-6 (IL-2 2.5 ng/mL) [19] | 7.06 | 2.93 | 5.43 | 30.6 | 67.5
YT (IL-2 2.5 ng/mL) [26] | -1.99 | -2.62 | 7.22 | 58.7 | 82.4
[2] | -7.65 | -6.22 | -2.48 | 25.2 | 68.2
[17] | -5.69 | 2.64 | 12.6 | 32.4 | 82.4
[18] | -6.7 | 13.9 | 10.7 | 28.1 | 58.9
[22] | -4.27 | 3.99 | 9.93 | 15.9 | 69.4
[24] | 7.14 | 23.7 | 24.7 | 33.3 | 68.1

From the supplement of paper PMC5908809
